Patent publication US4520014A (priority 1979, dated 1985)
Counter-ions that a name gives are not always drawn. Like-named read-outs stand apart in the source and are kept apart here.

Columns and labels:
[1] = tested on: fluid secretion caused by the enterotoxin(s) present in the culture filtrate (enteropathogenic strain of E. coli); assay: animal or person; type: in vivo, Mice
E. coli P155 = type: in vivo, Piglets; conditions: n = 14
[2] = tested on: diarrhoea caused by culture filtrate prepared from an enteropathogenic strain of E. coli; assay: Piglet test: inhibition of scour after oral challenge with E. coli culture filtrate; type: in vivo, Piglets; conditions: scour score over 7 h, hydrochloride salt
Method: 2-4 Day old piglets are dosed with the compound orally 45 min prior to oral challenge with 25 ml of culture filtrate prepared from an enteropathogenic strain of E. coli. Control animals receive drug vehicle 45 min prior to challenge with a similar volume of material. Animals are observed for diarrhoea over a 7 hour period and the severity of scour scored on a 0-3 basis for each animal at hourly intervals. The percentage inhibition in treated animals is determined as: [formula]

[3] = tested on: fluid secretion caused by material prepared by cell lysis of an enteropathogenic strain of E. coli; assay: Infant rabbit test: inhibition of fluid secretion after oral challenge with E. coli cell lysis material; type: in vivo, Rabbits; conditions: for % Fluid Inhibition: Rabbit, hydrochloride salt
Method: Infant rabbits 7-10 days old are dosed with the compound under investigation orally 45 min prior to oral challenge with 50 ml/kg bodyweight of material prepared by cell lysis of an enteropathogenic strain of E. coli. Control animals receive drug vehicle 45 mins prior to challenge with a similar volume of material. 5-7 Hours after oral administration of the challenge the animals are killed and gut weight/remaining bodyweight ratios calculated and the percentage fluid inhibition determined as above.

[4] = tested on: intestinal secretion induced by cholera toxin; conditions: alleged in G. N. Mir et al. (1978); cited from earlier work
[5] = Mus musculus, po, 2 h; read-out: % Fluid Inhibition
[6] = 10 mg/kg oral, 45 min before challenge

SMILES: Cc1ccc2ccccc2c1CC1=NCCN1 [2-Methyl Naphazoline]
- inhibition in vivo at 20 mg/kg ([1]; Mus musculus, po, 2 h): 82%

SMILES: CC1(C)S[C@@H]2[C@H](NC(=O)[C@H](N)c3ccc(O)cc3)C(=O)N2[C@H]1C(=O)O [Amoxycillin]
- Mean scour score ± S.E.M. (during 6 hrs after treatment) (E. coli P155): 2.0 ± 0.2

SMILES: N=C(N)NC(=O)Cc1c(Cl)cccc1Cl [BS 100-141, 2,6-dichlorophenylacetylguanidine hydrochloride]
- inhibition in vivo at 1 mg/kg [1, 5]: 45%
- % Fluid Inhibition ([2]; 1 mg/kg oral): 76%

SMILES: Clc1cccc(Cl)c1NC1=NCCN1 [Clonidine]
- inhibition in vivo at 1 mg/kg ([1]; Mus musculus, po, 2 h, read-out: % Fluid Inhibition): 42%
- % Fluid Inhibition ([2]; 0.2 mg/kg oral): 64%
- % Fluid Inhibition ([3]; 5 mg/kg oral): 26%

SMILES: CNC(=N)NC(=O)Nc1c(C)cccc1C [Lidamidine]
- inhibition in vivo at 50 mg/kg ([1]; Mus musculus, po, 2 h): 33%
- activity relative to the Compounds in the mouse test ([1]; mouse, in vivo): at least five times less active than the Compounds
- inhibition of intestinal secretion induced by cholera toxin [4]: inhibited intestinal secretion induced by cholera toxin
- % Fluid Inhibition ([3]; 50 mg/kg oral): -7%
- activity in the rabbit test ([3]; in words): inactive

SMILES: c1ccc2c(CC3=NCCN3)cccc2c1 [Naphazoline]
- inhibition in vivo at 10 mg/kg ([1]; Mus musculus, po, 2 h): 59%
- % Fluid Inhibition [2, 6]: 88%
- % Fluid Inhibition [3, 6]: 32%

SMILES: Cc1cc(C(C)(C)C)c(O)c(C)c1CC1=NCCN1 [Oxymetazoline]
- inhibition in vivo at 0.1 mg/kg ([1]; Mus musculus, po, 2 h): 78%

SMILES: CCc1cccc(CC)c1NC1=NCCN1 [ST91]
- inhibition in vivo at 5 mg/kg ([1]; Mus musculus, po, 2 h): 56%
- inhibition in vivo at 1 mg/kg [1, 5]: 22%

SMILES: c1cc2c(c(NC3=NCCN3)c1)CCCC2 [Tramazoline]
- inhibition in vivo at 10 mg/kg ([1]; Mus musculus, po, 2 h): 44%

SMILES: Cc1cc(C(C)(C)C)cc(C)c1CC1=NCCN1 [Xylometazoline]
- inhibition in vivo at 8.25 mg/kg ([1]; Mus musculus, po, 2 h): 44%
- % Fluid Inhibition ([2]; 2 mg/kg oral): 44%
- % Fluid Inhibition ([3]; 20 mg/kg oral): 119%
